In the NIST ThermoML archive (doi:10.1016/j.tca.2010.12.008):

Experiment: molar heat capacity at constant pressure
Conditions: 101.33 kPa

CC(C)(C)P(=O)(O)C(C)(C)C [di-tert-butylphosphinic acid]
Conditions	molar heat capacity at constant pressure [J/K/mol]
2.277 K, Crystal 2	0.028
2.67 K, Crystal 2	0.056
3.092 K, Crystal 2	0.169
3.71 K, Crystal 2	0.338
4.497 K, Crystal 2	0.591
5.284 K, Crystal 2	0.929
5.987 K, Crystal 2	1.352
6.633 K, Crystal 2	1.83
7.223 K, Crystal 2	2.337
7.813 K, Crystal 2	2.872
8.404 K, Crystal 2	3.548
9.078 K, Crystal 2	4.337
9.808 K, Crystal 2	5.322
10.74 K, Crystal 2	6.589
11.66 K, Crystal 2	7.941
12.56 K, Crystal 2	9.405
13.52 K, Crystal 2	10.93
14.44 K, Crystal 2	12.42
15.34 K, Crystal 2	13.94
16.24 K, Crystal 2	15.46
17.17 K, Crystal 2	17.04
18.15 K, Crystal 2	18.7
19.22 K, Crystal 2	20.47
20.32 K, Crystal 2	22.27
21.3 K, Crystal 2	23.93
22.28 K, Crystal 2	25.54
23.29 K, Crystal 2	27.17
24.3 K, Crystal 2	28.84
25.37 K, Crystal 2	30.69
26.44 K, Crystal 2	32.05
27.48 K, Crystal 2	33.54
28.6 K, Crystal 2	35.23
29.67 K, Crystal 2	36.78
30.74 K, Crystal 2	38.47
31.78 K, Crystal 2	40.07
32.82 K, Crystal 2	41.87
34.73 K, Crystal 2	45.11
35.2 K, Crystal 2	46.01
35.88 K, Crystal 2	47.28
36.58 K, Crystal 2	48.41
37.37 K, Crystal 1	47.62
38.02 K, Crystal 1	45.28
38.77 K, Crystal 1	45.25
39.59 K, Crystal 1	45.81
40.38 K, Crystal 1	46.52
41.16 K, Crystal 1	47.25
41.95 K, Crystal 1	48.01
42.74 K, Crystal 1	48.77
43.55 K, Crystal 1	49.65
44.37 K, Crystal 1	50.52
45.18 K, Crystal 1	51.33
46 K, Crystal 1	52.18
46.84 K, Crystal 1	53.05
47.66 K, Crystal 1	53.9
48.47 K, Crystal 1	54.74
49.31 K, Crystal 1	55.53
50.1 K, Crystal 1	56.32
50.97 K, Crystal 1	57.08
51.81 K, Crystal 1	57.9
52.63 K, Crystal 1	58.8
53.44 K, Crystal 1	59.56
54.29 K, Crystal 1	60.43
55.1 K, Crystal 1	61.3
55.94 K, Crystal 1	62.17
56.79 K, Crystal 1	63.08
57.66 K, Crystal 1	63.98
58.67 K, Crystal 1	65.08
59.34 K, Crystal 1	65.81
60.19 K, Crystal 1	66.74
61 K, Crystal 1	67.64
61.65 K, Crystal 1	68.31
62.63 K, Crystal 1	69.41
63.11 K, Crystal 1	69.95
63.56 K, Crystal 1	70.45
64.57 K, Crystal 1	71.58
65.27 K, Crystal 1	72.4
66 K, Crystal 1	73.16
66.9 K, Crystal 1	74.2
67.41 K, Crystal 1	74.76
67.94 K, Crystal 1	75.35
68.9 K, Crystal 1	76.37
69.57 K, Crystal 1	77.21
70.28 K, Crystal 1	77.94
70.64 K, Crystal 1	78.42
71.23 K, Crystal 1	79.24
71.62 K, Crystal 1	79.66
81.51 K, Crystal 1	92.05
82.47 K, Crystal 1	93.11
83.42 K, Crystal 1	94.18
84.38 K, Crystal 1	95.24
85.33 K, Crystal 1	96.41
86.29 K, Crystal 1	97.48
87.35 K, Crystal 1	98.65
88.31 K, Crystal 1	99.82
89.26 K, Crystal 1	100.89
90.32 K, Crystal 1	102.06
91.28 K, Crystal 1	103.23
92.34 K, Crystal 1	104.4
93.3 K, Crystal 1	105.58
94.36 K, Crystal 1	106.75
95.31 K, Crystal 1	107.81
96.27 K, Crystal 1	109.09
97.33 K, Crystal 1	110.16
98.39 K, Crystal 1	111.33
99.34 K, Crystal 1	112.39
100.41 K, Crystal 1	113.56
101.47 K, Crystal 1	114.74
102.53 K, Crystal 1	115.8
103.59 K, Crystal 1	116.97
104.55 K, Crystal 1	118.04
105.71 K, Crystal 1	119.32
106.78 K, Crystal 1	120.49
107.84 K, Crystal 1	121.56
108.9 K, Crystal 1	122.73
109.96 K, Crystal 1	123.9
111.02 K, Crystal 1	124.96
112.08 K, Crystal 1	126.24
113.14 K, Crystal 1	127.31
114.2 K, Crystal 1	128.48
115.27 K, Crystal 1	129.54
116.43 K, Crystal 1	130.61
117.5 K, Crystal 1	131.89
118.56 K, Crystal 1	133.17
119.72 K, Crystal 1	134.34
120.79 K, Crystal 1	135.3
121.95 K, Crystal 1	136.47
123.12 K, Crystal 1	137.64
124.18 K, Crystal 1	138.92
125.35 K, Crystal 1	139.99
126.52 K, Crystal 1	141.05
127.69 K, Crystal 1	142.22
128.85 K, Crystal 1	143.4
130.02 K, Crystal 1	144.57
131.19 K, Crystal 1	145.74
132.46 K, Crystal 1	147.02
133.53 K, Crystal 1	148.19
134.69 K, Crystal 1	149.04
135.75 K, Crystal 1	150.32
137.24 K, Crystal 1	151.28
138.41 K, Crystal 1	152.45
139.58 K, Crystal 1	153.52
141.06 K, Crystal 1	154.79
142.44 K, Crystal 1	156.07
143.93 K, Crystal 1	157.56
145.2 K, Crystal 1	158.74
146.69 K, Crystal 1	160.12
148.18 K, Crystal 1	161.4
149.88 K, Crystal 1	163
151.25 K, Crystal 1	164.38
152.74 K, Crystal 1	165.77
154.33 K, Crystal 1	167.04
155.61 K, Crystal 1	168.32
157.31 K, Crystal 1	169.71
158.79 K, Crystal 1	170.99
160.17 K, Crystal 1	172.37
162.09 K, Crystal 1	173.76
163.68 K, Crystal 1	175.25
164.95 K, Crystal 1	176.42
166.76 K, Crystal 1	177.81
168.24 K, Crystal 1	179.3
169.94 K, Crystal 1	180.79
171.64 K, Crystal 1	182.28
173.34 K, Crystal 1	183.77
174.83 K, Crystal 1	185.05
176.74 K, Crystal 1	186.86
182.79 K, Crystal 1	191.66
183.96 K, Crystal 1	192.72
185.13 K, Crystal 1	193.79
186.61 K, Crystal 1	195.06
188.1 K, Crystal 1	196.24
189.16 K, Crystal 1	197.3
190.75 K, Crystal 1	198.37
192.13 K, Crystal 1	199.65
193.62 K, Crystal 1	200.92
195.11 K, Crystal 1	202.2
196.49 K, Crystal 1	203.37
198.08 K, Crystal 1	204.65
199.57 K, Crystal 1	205.72
201.16 K, Crystal 1	207.1
202.65 K, Crystal 1	208.27
204.13 K, Crystal 1	209.55
205.72 K, Crystal 1	210.72
207.32 K, Crystal 1	212
209.02 K, Crystal 1	213.18
210.5 K, Crystal 1	214.45
212.31 K, Crystal 1	215.73
213.8 K, Crystal 1	217.01
215.5 K, Crystal 1	218.5
217.3 K, Crystal 1	219.78
218.89 K, Crystal 1	221.16
220.7 K, Crystal 1	222.76
222.5 K, Crystal 1	224.04
224.31 K, Crystal 1	225.53
225.9 K, Crystal 1	227.24
227.81 K, Crystal 1	228.62
229.72 K, Crystal 1	230.11
231.53 K, Crystal 1	231.82
233.23 K, Crystal 1	233.2
235.03 K, Crystal 1	234.69
236.84 K, Crystal 1	236.08
238.85 K, Crystal 1	237.57
240.66 K, Crystal 1	239.06
242.78 K, Crystal 1	240.77
244.7 K, Crystal 1	242.15
246.61 K, Crystal 1	243.75
248.52 K, Crystal 1	245.35
250.54 K, Crystal 1	247.05
252.55 K, Crystal 1	248.76
254.57 K, Crystal 1	250.25
256.59 K, Crystal 1	251.85
258.71 K, Crystal 1	253.44
260.62 K, Crystal 1	255.26
262.75 K, Crystal 1	257.07
264.98 K, Crystal 1	258.77
266.89 K, Crystal 1	260.69
269.22 K, Crystal 1	262.39
271.35 K, Crystal 1	264.63
273.37 K, Crystal 1	265.91
275.7 K, Crystal 1	267.4
277.82 K, Crystal 1	269.32
280.27 K, Crystal 1	271.45
282.18 K, Crystal 1	272.62
284.62 K, Crystal 1	274.96
286.96 K, Crystal 1	276.99
289.29 K, Crystal 1	279.01
291.63 K, Crystal 1	281.14
293.64 K, Crystal 1	283.17
295.98 K, Crystal 1	283.49
